Measured values reported in the supplement of paper PMC11061612.

Columns and labels:
Assay in all cases: combination Emax (second highest fraction inhibited in the dose matrix, 72 h); higher = more inhibition; extreme values may be limits of the assay
[1] = system: BT-20 (Breast Carcinoma)
Procedure, shortened: (§1)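 Bliss excess equals the observed combination effect minus the expected value EA + EB − EA·EB, where EA and EB are the effects of each agent alone. Combination Emax is the second-highest inhibition within the matrix. Inhibition was scaled from CellTiter-Glo 2.0 luminescence, with 0 set by vehicle wells and 1 by blank wells, after 72 hours of two-drug dosing of cells plated in 1536-well plates.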

[2] = system: ASH-3 (Thyroid Gland Carcinoma)
Procedure, shortened: as §1

[3] = system: NB7 (Neuroblastoma)
Procedure, shortened: as §1

[4] = system: KYSE-150 (Esophageal Squamous Cell Carcinoma)
Procedure, shortened: as §1

[5] = system: VMRC-LCD (Lung Adenocarcinoma)
Procedure, shortened: as §1

[6] = system: PFSK-1 (Other Solid Carcinomas)
Procedure, shortened: as §1

[7] = system: EMC-BAC-2 (Non-Small Cell Lung Carcinoma)
Procedure, shortened: as §1

[8] = system: NCI-H1573 (Lung Adenocarcinoma)
Procedure, shortened: as §1

[9] = system: NCI-H322M (Lung Adenocarcinoma)
Procedure, shortened: as §1

[10] = system: SNU-C1 (Colorectal Carcinoma)
Procedure, shortened: as §1

[11] = system: EW-18 (Ewing's Sarcoma)
Procedure, shortened: as §1

[12] = system: EW-3 (Ewing's Sarcoma)
Procedure, shortened: as §1

[13] = system: PF-382 (T-Lymphoblastic Leukemia)
Procedure, shortened: as §1

[14] = system: HSC-2 (Oral Cavity Carcinoma)
Procedure, shortened: as §1

[15] = system: NCI-H2405 (Lung Adenocarcinoma)
Procedure, shortened: as §1

[16] = system: HC-1 (Other Blood Carcinomas)
Procedure, shortened: as §1

[17] = system: A704 (Kidney Carcinoma)
Procedure, shortened: as §1

[18] = system: JHH-7 (Hepatocellular Carcinoma)
Procedure, shortened: as §1

[19] = system: BV-173 (Chronic Myelogenous Leukemia)
Procedure, shortened: as §1

[20] = system: DG-75 (Burkitt's Lymphoma)
Procedure, shortened: as §1

| SMILES | combination Emax [1] | combination Emax [2] | combination Emax [3] | combination Emax [4] | combination Emax [5] | combination Emax [6] | combination Emax [7] | combination Emax [8] | combination Emax [9] | combination Emax [10] | combination Emax [11] | combination Emax [12] | combination Emax [13] | combination Emax [14] | combination Emax [15] | combination Emax [16] | combination Emax [17] | combination Emax [18] | combination Emax [19] | combination Emax [20] |
| --- | --- | --- | --- | --- | --- | --- | --- | --- | --- | --- | --- | --- | --- | --- | --- | --- | --- | --- | --- | --- |
| NC1(C(=O)N[C@@H](CCO)c2ccc(Cl)cc2)CCN(c2ncnc3[nH]ccc23)CC1 [Capivasertib] + Cn1cnc2c(F)c(Nc3ccc(Br)cc3Cl)c(C(=O)NOCCO)cc21 [Selumetinib] (first compound max 10 µM, 7x7, partner max 10 µM) | 0.809 | 0.773 | 0.28 | 0.743 | 0.248 | 0.516 | 0.622 | 0.495 | 0.582 | 0.703 | 0.656 | 0.24 | 0.764 | 0.721 | 0.573 | 0.601 | 0.434 | 0.418 | 0.718 | 0.398 |
| Cc1c2c(nn1C)CSCc1cc(n(C)n1)CSc1cc(c3ccccc3c1)OCCCc1c(C(=O)O)n(C)c3c-2c(Cl)ccc13 [AZD5991] + CC1(C)CCC(CN2CCN(c3ccc(C(=O)NS(=O)(=O)c4ccc(NCC5CCOCC5)c([N+](=O)[O-])c4)c(Oc4cnc5[nH]ccc5c4)c3)CC2)=C(c2ccc(Cl)cc2)C1 [Venetoclax] (first compound max 1 µM, 7x7, partner max 1 µM) | 0.889 | 0.325 | 0.513 | 0.17 | 0.164 | 1 | 0.694 | 0.302 | 0.155 | 0.574 | 0.919 | 0.953 | 0.337 | 0.965 | 0.175 | 0.762 | 0.344 | 0.221 | 0.95 | 0.144 |
| C[C@@H](c1ccc2nccn2c1)n1nnc2ncc(-c3cnn(C)c3)nc21 [Savolitinib] + Cc1c2c(nn1C)CSCc1cc(n(C)n1)CSc1cc(c3ccccc3c1)OCCCc1c(C(=O)O)n(C)c3c-2c(Cl)ccc13 [AZD5991] (first compound max 1 µM, 7x7, partner max 1 µM) | 0.465 | 0.299 | 0.462 | 0.219 | 0.154 | 0.93 | 0.45 | 0.351 | 0.086 | 0.396 | 0.874 | 0.558 | 0.134 | 0.711 | 0.0962 | 0.216 | 0.256 | 0.205 | 0.704 | 0.11 |
| CN(C)CCCOc1ccc(-c2ccc3ncc4c(c3c2)n(C2CCOCC2)c(=O)n4C)cn1 [AZD0156] + O=C(c1cc(Cc2n[nH]c(=O)c3ccccc23)ccc1F)N1CCN(C(=O)C2CC2)CC1 [Olaparib] (first compound max 3 µM, partner max 3 µM) | 0.157 | 0.194 | 0.297 | 0.295 | 0.0443 | 0.424 | 0.486 | 0.18 | 0.357 | 0.226 | 0.61 | 0.708 | 0.38 | 0.386 | 0.256 | 0.527 | 0.247 | 0.339 | 0.764 | 0.481 |
| NC1(C(=O)N[C@@H](CCO)c2ccc(Cl)cc2)CCN(c2ncnc3[nH]ccc23)CC1 [Capivasertib] + CCN(CCO)CCCOc1ccc2c(Nc3cc(CC(=O)Nc4cccc(F)c4)[nH]n3)ncnc2c1 [AZD2811] (first compound max 10 µM, 7x7, partner max 1 µM) | 0.765 | 0.451 | 0.613 | 0.536 | 0.59 | 0.532 | 0.564 | 0.323 | 0.338 | 0.588 | 0.811 | 0.595 | 0.916 | 0.707 | 0.329 | 0.629 | 0.324 | 0.294 | 0.915 | 0.606 |
| COc1cc2ncnc(Nc3ccc(F)c(Cl)c3)c2cc1OCCCN1CCOCC1 [Gefitinib] + CC(C)n1c(=O)n(C)c2cnc3cc(F)c(-c4ccc(OCCCN5CCCCC5)nc4)cc3c21 [AZD1390] (first compound max 10 µM, 7x7, partner max 0.3 µM) | 0.244 | 0.146 | 0.136 | 0.353 | 0.0987 | 0.265 | 0.32 | 0.162 | 0.718 | 0.0654 | 0.229 | 0.254 | 0.323 | 0.555 | 0.0242 | 0.387 | 0.439 | 0.115 | 0.391 | 0.373 |
| CC1(C)CCC(CN2CCN(c3ccc(C(=O)NS(=O)(=O)c4ccc(NCC5CCOCC5)c([N+](=O)[O-])c4)c(Oc4cnc5[nH]ccc5c4)c3)CC2)=C(c2ccc(Cl)cc2)C1 [Venetoclax] + Cc1cc2ncnn2cc1Nc1ncc2c(n1)n(C1CCOCC1)c(=O)n2C [AZD7648] (first compound max 1 µM, 7x7, partner max 10 µM) | 0.374 | 0.263 | 0.0987 | 0.572 | 0.179 | 0.489 | 0.271 | 0.173 | 0.414 | 0.227 | 0.455 | 0.735 | 0.355 | 0.304 | 0.103 | 0.481 | 0.32 | 0.134 | 0.811 | 0.317 |
| CC1(C)CCC(CN2CCN(c3ccc(C(=O)NS(=O)(=O)c4ccc(NCC5CCOCC5)c([N+](=O)[O-])c4)c(Oc4cnc5[nH]ccc5c4)c3)CC2)=C(c2ccc(Cl)cc2)C1 [Venetoclax] + C[C@@H]1COCCN1C2=NC(=NC(=C2)C3(CC3)[S@](=N)(=O)C)C4=C5C=CNC5=NC=C4 [AZD6738] (first compound max 1 µM, 7x7, partner max 10 µM) | 0.491 | 0.57 | 0.5 | 0.628 | 0.537 | 0.685 | 0.612 | 0.579 | 0.894 | 0.366 | 0.67 | 0.844 | 0.927 | 0.824 | 0.305 | 0.864 | 0.48 | 0.285 | 0.954 | 0.781 |
| Cc1c2c(nn1C)CSCc1cc(n(C)n1)CSc1cc(c3ccccc3c1)OCCCc1c(C(=O)O)n(C)c3c-2c(Cl)ccc13 [AZD5991] + C1CN(CCC1(C(=O)N[C@@H](CCO)C2=CC=C(C=C2)Cl)N)C3=NC=NC4=C3C=CN4 [Capivasertib] (first compound max 1 µM, 7x7, partner max 3 µM) | 0.867 | 0.267 | 0.609 | 0.397 | 0.129 | 1 | 0.718 | 0.264 | 0.225 | 0.576 | 0.95 | 0.649 | 0.477 | 0.976 | 0.203 | 0.588 | 0.306 | 0.188 | 0.927 | 0.257 |
| Cc1c2c(nn1C)CSCc1cc(n(C)n1)CSc1cc(c3ccccc3c1)OCCCc1c(C(=O)O)n(C)c3c-2c(Cl)ccc13 [AZD5991] + C[C@@H](Nc1cc(F)cc(F)c1)c1cc(C(=O)N(C)C)cc2c(=O)cc(N3CCOCC3)oc12 [AZD8186] (first compound max 1 µM, 7x7, partner max 3 µM) | 0.614 | 0.46 | 0.686 | 0.281 | 0.196 | 0.998 | 0.632 | 0.318 | 0.414 | 0.439 | 0.94 | 0.636 | 0.27 | 0.963 | 0.165 | 0.534 | 0.496 | 0.169 | 0.93 | 0.219 |
| CC1(C)CCC(CN2CCN(c3ccc(C(=O)NS(=O)(=O)c4ccc(NCC5CCOCC5)c([N+](=O)[O-])c4)c(Oc4cnc5[nH]ccc5c4)c3)CC2)=C(c2ccc(Cl)cc2)C1 [Venetoclax] + CN(C)CCCOc1ccc(-c2ccc3ncc4c(c3c2)n(C2CCOCC2)c(=O)n4C)cn1 [AZD0156] (first compound max 1 µM, 7x7, partner max 1 µM) | 0.132 | 0.229 | 0.18 | 0.237 | 0.153 | 0.391 | 0.25 | 0.168 | 0.31 | 0.163 | 0.389 | 0.799 | 0.256 | 0.722 | 0.14 | 0.207 | 0.185 | 0.18 | 0.833 | 0.125 |
| C[C@@H](c1ccc2nccn2c1)n1nnc2ncc(-c3cnn(C)c3)nc21 [Savolitinib] + CN(CC[C@H](CSC1=CC=CC=C1)NC2=C(C=C(C=C2)S(=O)(=O)NC(=O)C3=CC=C(C=C3)N4CCC(CC4)[C@H](C5=CC=CC=C5C6=CC=C(C=C6)Cl)O)S(=O)(=O)C(F)(F)F)CCO [AZD4320] (first compound max 1 µM, 7x7, partner max 1 µM) | 0.418 | 0.463 | – | 0.219 | – | 0.329 | 0.216 | 0.218 | 0.0979 | – | 0.891 | – | 0.993 | – | 0.271 | 0.546 | 0.449 | – | 0.954 | 0.057 |
